In ChEMBL document CHEMBL3870312, “Rational modification of donepezil as multifunctional acetylcholinesterase inhibitors for the treatment of Alzheimer's disease” (Eur J Med Chem, 2016):

biological target: Cholinesterase (Equus caballus, UniProt P81908); test: not given; conditions: not given
Sequence (P81908 whole entry): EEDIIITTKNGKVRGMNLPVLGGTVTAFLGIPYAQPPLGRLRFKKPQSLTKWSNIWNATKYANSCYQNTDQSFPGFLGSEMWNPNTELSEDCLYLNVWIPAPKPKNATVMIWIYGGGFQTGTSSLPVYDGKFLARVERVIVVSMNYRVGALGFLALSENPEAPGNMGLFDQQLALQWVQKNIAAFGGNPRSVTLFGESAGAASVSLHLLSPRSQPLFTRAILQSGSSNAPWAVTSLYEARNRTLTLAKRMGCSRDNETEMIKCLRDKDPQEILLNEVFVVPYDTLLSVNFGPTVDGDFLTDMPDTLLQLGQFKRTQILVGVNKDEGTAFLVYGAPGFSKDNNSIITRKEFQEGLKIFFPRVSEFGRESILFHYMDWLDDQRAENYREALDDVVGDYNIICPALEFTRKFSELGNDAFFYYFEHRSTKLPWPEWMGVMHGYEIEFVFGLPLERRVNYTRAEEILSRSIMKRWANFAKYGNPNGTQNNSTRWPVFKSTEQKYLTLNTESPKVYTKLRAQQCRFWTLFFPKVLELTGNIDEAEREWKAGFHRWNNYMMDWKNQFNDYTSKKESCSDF

Point of comparison: `COc1cc2c(cc1OC)C(=O)C(CC1CCN(Cc3ccc4cccc(O)c4n3)CC1)C2` (configuration not stated), IC50 4.53 µM. Against it:
- COc1cc2c(cc1OC)C(=O)C(CC1CCN(Cc3ncc(C)cc3C)CC1)C2 (configuration not stated) — within 1.5-fold, 6.31 µM
- COC(=O)c1cccc(CN2CCC(CC3Cc4cc(OC)c(OC)cc4C3=O)CC2)n1 (configuration not stated) — 6.5-fold higher, 29.5 µM
- COc1cc2c(cc1OC)C(=O)C(CC1CCN(Cc3cccc(F)n3)CC1)C2 (configuration not stated) — 4.7-fold higher, 21.1 µM
- COc1cc2c(cc1OC)C(=O)C(CC1CCN(Cc3ccc([N+](=O)[O-])cc3)CC1)C2 (configuration not stated) — 2.7-fold higher, 12.2 µM
- COc1cc2c(cc1OC)C(=O)C(CC1CCN(Cc3cccc(C(F)(F)F)c3)CC1)C2 (configuration not stated) — 4-fold higher, 18.2 µM
- COc1cc2c(cc1OC)C(=O)C(CC1CCN(Cc3ccc4ccccc4n3)CC1)C2 (configuration not stated) — 2.1-fold higher, 9.68 µM
- COc1cc2c(cc1OC)C(=O)C(CC1CCN(Cc3cccc(F)c3)CC1)C2 (configuration not stated) — 1.7-fold lower, 2.66 µM
- COc1cc2c(cc1OC)C(=O)C(CC1CCN(Cc3cccc([N+](=O)[O-])c3)CC1)C2 (configuration not stated) — 9.4-fold higher, 42.4 µM
- COc1cc2c(cc1OC)C(=O)C(CC1CCN(Cc3ccc(C(F)(F)F)cc3)CC1)C2 (configuration not stated) — within 1.5-fold, 3.98 µM
- COc1cc2c(cc1OC)C(=O)C(CC1CCN(Cc3ccccc3C)CC1)C2 (configuration not stated) — 8.4-fold higher, 38.1 µM
- COc1cc2c(cc1OC)C(=O)C(CC1CCN(Cc3ccc(Cl)cc3)CC1)C2 (configuration not stated) — 20-fold higher, 89.4 µM
- COc1cc2c(cc1OC)C(=O)C(CC1CCN(Cc3ccccc3[N+](=O)[O-])CC1)C2 (configuration not stated) — 6.9-fold higher, 31.1 µM
- COc1cc2c(cc1OC)C(=O)C(CC1CCN(Cc3cccc(Br)n3)CC1)C2 (configuration not stated) — 3.9-fold higher, 17.5 µM

biological target: Acetylcholinesterase (Electrophorus electricus, UniProt O42275); test: not given; conditions: not given
Sequence (O42275 whole entry): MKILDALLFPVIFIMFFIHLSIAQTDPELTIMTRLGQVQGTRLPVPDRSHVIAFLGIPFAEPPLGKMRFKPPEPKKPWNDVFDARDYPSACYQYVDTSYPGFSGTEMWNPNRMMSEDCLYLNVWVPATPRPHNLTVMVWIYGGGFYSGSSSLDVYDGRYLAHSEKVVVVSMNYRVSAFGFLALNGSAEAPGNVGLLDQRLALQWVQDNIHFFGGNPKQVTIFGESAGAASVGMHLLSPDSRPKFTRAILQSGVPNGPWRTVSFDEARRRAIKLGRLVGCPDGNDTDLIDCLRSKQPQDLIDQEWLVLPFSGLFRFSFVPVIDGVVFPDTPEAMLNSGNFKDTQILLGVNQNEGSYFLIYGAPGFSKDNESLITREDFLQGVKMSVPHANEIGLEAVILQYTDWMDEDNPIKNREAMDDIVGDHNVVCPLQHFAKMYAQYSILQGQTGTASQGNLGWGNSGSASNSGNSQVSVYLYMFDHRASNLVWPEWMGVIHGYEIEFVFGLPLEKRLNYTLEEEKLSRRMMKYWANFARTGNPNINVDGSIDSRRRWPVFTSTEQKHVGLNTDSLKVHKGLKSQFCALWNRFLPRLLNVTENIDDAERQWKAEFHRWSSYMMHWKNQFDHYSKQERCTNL

Point of comparison: `COc1cc2c(cc1OC)C(=O)C(CC1CCN(Cc3ccccc3C)CC1)C2` (configuration not stated), IC50 0.184 µM. Against it:
- COc1cc2c(cc1OC)C(=O)C(CC1CCN(Cc3ncc(C)cc3C)CC1)C2 (configuration not stated) — 5.5-fold higher, 1.01 µM
- COC(=O)c1cccc(CN2CCC(CC3Cc4cc(OC)c(OC)cc4C3=O)CC2)n1 (configuration not stated) — 2.8-fold higher, 0.511 µM
- COc1cc2c(cc1OC)C(=O)C(CC1CCN(Cc3cccc(F)n3)CC1)C2 (configuration not stated) — within 1.5-fold, 0.246 µM
- COc1cc2c(cc1OC)C(=O)C(CC1CCN(Cc3ccc([N+](=O)[O-])cc3)CC1)C2 (configuration not stated) — 22-fold higher, 4.02 µM
- COc1cc2c(cc1OC)C(=O)C(CC1CCN(Cc3cccc(C(F)(F)F)c3)CC1)C2 (configuration not stated) — within 1.5-fold, 0.197 µM
- COc1cc2c(cc1OC)C(=O)C(CC1CCN(Cc3ccc4ccccc4n3)CC1)C2 (configuration not stated) — 47-fold higher, 8.71 µM
- COc1cc2c(cc1OC)C(=O)C(CC1CCN(Cc3cccc(F)c3)CC1)C2 (configuration not stated) — 2.7-fold lower, 0.068 µM
- COc1cc2c(cc1OC)C(=O)C(CC1CCN(Cc3cccc([N+](=O)[O-])c3)CC1)C2 (configuration not stated) — 2.2-fold higher, 0.414 µM
- COc1cc2c(cc1OC)C(=O)C(CC1CCN(Cc3ccc(C(F)(F)F)cc3)CC1)C2 (configuration not stated) — 11-fold higher, 2.03 µM
- COc1cc2c(cc1OC)C(=O)C(CC1CCN(Cc3ccc4cccc(O)c4n3)CC1)C2 (configuration not stated) — 35-fold higher, 6.42 µM
- COc1cc2c(cc1OC)C(=O)C(CC1CCN(Cc3ccc(Cl)cc3)CC1)C2 (configuration not stated) — 26-fold higher, 4.8 µM
- COc1cc2c(cc1OC)C(=O)C(CC1CCN(Cc3ccccc3[N+](=O)[O-])CC1)C2 (configuration not stated) — 1.7-fold lower, 0.106 µM
- COc1cc2c(cc1OC)C(=O)C(CC1CCN(Cc3cccc(Br)n3)CC1)C2 (configuration not stated) — within 1.5-fold, 0.253 µM

biological target: Acetylcholinesterase (Homo sapiens, UniProt P22303); test: not given; conditions: not given
Sequence (P22303 whole entry): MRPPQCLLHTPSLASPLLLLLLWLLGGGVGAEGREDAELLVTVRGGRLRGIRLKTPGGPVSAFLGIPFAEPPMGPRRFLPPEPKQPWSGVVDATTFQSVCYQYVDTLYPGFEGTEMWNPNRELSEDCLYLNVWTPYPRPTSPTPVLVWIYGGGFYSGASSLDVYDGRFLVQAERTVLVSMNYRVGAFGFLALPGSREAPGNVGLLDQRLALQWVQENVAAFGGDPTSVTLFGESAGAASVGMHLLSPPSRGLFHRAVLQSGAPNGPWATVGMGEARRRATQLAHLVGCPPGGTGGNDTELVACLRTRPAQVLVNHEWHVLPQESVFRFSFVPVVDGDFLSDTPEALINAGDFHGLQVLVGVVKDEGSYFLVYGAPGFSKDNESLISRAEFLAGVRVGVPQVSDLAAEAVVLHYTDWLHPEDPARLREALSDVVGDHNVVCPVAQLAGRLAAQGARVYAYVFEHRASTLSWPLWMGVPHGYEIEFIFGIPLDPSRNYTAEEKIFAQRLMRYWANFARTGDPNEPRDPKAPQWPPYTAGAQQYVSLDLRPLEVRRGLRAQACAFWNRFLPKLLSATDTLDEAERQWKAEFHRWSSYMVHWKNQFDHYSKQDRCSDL

Point of comparison: `COc1cc2c(cc1OC)C(=O)C(CC1CCN(Cc3ccccc3[N+](=O)[O-])CC1)C2` (configuration not stated), IC50 3.11 µM. Against it:
- COc1cc2c(cc1OC)C(=O)C(CC1CCN(Cc3ncc(C)cc3C)CC1)C2 (configuration not stated) — 3.8-fold lower, 0.814 µM
- COC(=O)c1cccc(CN2CCC(CC3Cc4cc(OC)c(OC)cc4C3=O)CC2)n1 (configuration not stated) — 1.9-fold higher, 5.78 µM
- COc1cc2c(cc1OC)C(=O)C(CC1CCN(Cc3cccc(F)n3)CC1)C2 (configuration not stated) — 16-fold lower, 0.195 µM
- COc1cc2c(cc1OC)C(=O)C(CC1CCN(Cc3ccc([N+](=O)[O-])cc3)CC1)C2 (configuration not stated) — 1.6-fold lower, 1.91 µM
- COc1cc2c(cc1OC)C(=O)C(CC1CCN(Cc3cccc(C(F)(F)F)c3)CC1)C2 (configuration not stated) — within 1.5-fold, 2.12 µM
- COc1cc2c(cc1OC)C(=O)C(CC1CCN(Cc3ccc4ccccc4n3)CC1)C2 (configuration not stated) — 2.7-fold higher, 8.43 µM
- COc1cc2c(cc1OC)C(=O)C(CC1CCN(Cc3cccc(F)c3)CC1)C2 (configuration not stated) — 58-fold lower, 0.054 µM
- COc1cc2c(cc1OC)C(=O)C(CC1CCN(Cc3cccc([N+](=O)[O-])c3)CC1)C2 (configuration not stated) — 4.8-fold lower, 0.652 µM
- COc1cc2c(cc1OC)C(=O)C(CC1CCN(Cc3ccc(C(F)(F)F)cc3)CC1)C2 (configuration not stated) — 1.7-fold higher, 5.43 µM
- COc1cc2c(cc1OC)C(=O)C(CC1CCN(Cc3ccc4cccc(O)c4n3)CC1)C2 (configuration not stated) — 9.6-fold higher, 29.8 µM
- COc1cc2c(cc1OC)C(=O)C(CC1CCN(Cc3ccccc3C)CC1)C2 (configuration not stated) — 13-fold lower, 0.243 µM
- COc1cc2c(cc1OC)C(=O)C(CC1CCN(Cc3ccc(Cl)cc3)CC1)C2 (configuration not stated) — within 1.5-fold, 2.86 µM
- COc1cc2c(cc1OC)C(=O)C(CC1CCN(Cc3cccc(Br)n3)CC1)C2 (configuration not stated) — 1.6-fold lower, 1.98 µM

biological target: Cholinesterase (Homo sapiens, UniProt P06276); test: not given; conditions: not given
Sequence (P06276 whole entry): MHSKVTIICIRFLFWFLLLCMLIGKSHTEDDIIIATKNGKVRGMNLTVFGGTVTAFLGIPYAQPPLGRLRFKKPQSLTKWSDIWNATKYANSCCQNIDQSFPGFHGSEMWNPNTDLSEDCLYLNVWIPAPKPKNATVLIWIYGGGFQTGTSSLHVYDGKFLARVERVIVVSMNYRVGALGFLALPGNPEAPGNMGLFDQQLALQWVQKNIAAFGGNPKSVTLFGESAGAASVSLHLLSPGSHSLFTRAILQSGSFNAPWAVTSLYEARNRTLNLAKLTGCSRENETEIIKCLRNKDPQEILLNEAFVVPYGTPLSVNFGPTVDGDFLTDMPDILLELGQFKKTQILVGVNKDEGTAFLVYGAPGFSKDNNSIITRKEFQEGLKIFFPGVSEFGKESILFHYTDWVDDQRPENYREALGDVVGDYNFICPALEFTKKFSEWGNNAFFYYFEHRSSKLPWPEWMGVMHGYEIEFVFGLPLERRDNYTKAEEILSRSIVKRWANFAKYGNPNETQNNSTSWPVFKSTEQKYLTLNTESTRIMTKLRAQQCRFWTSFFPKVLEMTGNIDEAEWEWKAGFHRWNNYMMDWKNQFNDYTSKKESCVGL

Point of comparison: `COc1cc2c(cc1OC)C(=O)C(CC1CCN(Cc3ccc([N+](=O)[O-])cc3)CC1)C2` (configuration not stated), IC50 85.8 µM. Against it:
- COc1cc2c(cc1OC)C(=O)C(CC1CCN(Cc3ncc(C)cc3C)CC1)C2 (configuration not stated) — 10-fold lower, 8.55 µM
- COC(=O)c1cccc(CN2CCC(CC3Cc4cc(OC)c(OC)cc4C3=O)CC2)n1 (configuration not stated) — 3.4-fold lower, 25.4 µM
- COc1cc2c(cc1OC)C(=O)C(CC1CCN(Cc3cccc(F)n3)CC1)C2 (configuration not stated) — 2.2-fold lower, 38.9 µM
- COc1cc2c(cc1OC)C(=O)C(CC1CCN(Cc3cccc(C(F)(F)F)c3)CC1)C2 (configuration not stated) — within 1.5-fold, 76.9 µM
- COc1cc2c(cc1OC)C(=O)C(CC1CCN(Cc3ccc4ccccc4n3)CC1)C2 (configuration not stated) — 14-fold lower, 6.35 µM
- COc1cc2c(cc1OC)C(=O)C(CC1CCN(Cc3cccc(F)c3)CC1)C2 (configuration not stated) — 3.2-fold lower, 26.7 µM
- COc1cc2c(cc1OC)C(=O)C(CC1CCN(Cc3ccc4cccc(O)c4n3)CC1)C2 (configuration not stated) — 2.3-fold lower, 37.4 µM
- COc1cc2c(cc1OC)C(=O)C(CC1CCN(Cc3ccc(Cl)cc3)CC1)C2 (configuration not stated) — within 1.5-fold, 81.6 µM
- COc1cc2c(cc1OC)C(=O)C(CC1CCN(Cc3ccccc3[N+](=O)[O-])CC1)C2 (configuration not stated) — within 1.5-fold, 91.2 µM

biological target: Amyloid-beta precursor protein (Homo sapiens) (UniProt P05067); test: not given; conditions: at 20 µM
Sequence (P05067 whole entry): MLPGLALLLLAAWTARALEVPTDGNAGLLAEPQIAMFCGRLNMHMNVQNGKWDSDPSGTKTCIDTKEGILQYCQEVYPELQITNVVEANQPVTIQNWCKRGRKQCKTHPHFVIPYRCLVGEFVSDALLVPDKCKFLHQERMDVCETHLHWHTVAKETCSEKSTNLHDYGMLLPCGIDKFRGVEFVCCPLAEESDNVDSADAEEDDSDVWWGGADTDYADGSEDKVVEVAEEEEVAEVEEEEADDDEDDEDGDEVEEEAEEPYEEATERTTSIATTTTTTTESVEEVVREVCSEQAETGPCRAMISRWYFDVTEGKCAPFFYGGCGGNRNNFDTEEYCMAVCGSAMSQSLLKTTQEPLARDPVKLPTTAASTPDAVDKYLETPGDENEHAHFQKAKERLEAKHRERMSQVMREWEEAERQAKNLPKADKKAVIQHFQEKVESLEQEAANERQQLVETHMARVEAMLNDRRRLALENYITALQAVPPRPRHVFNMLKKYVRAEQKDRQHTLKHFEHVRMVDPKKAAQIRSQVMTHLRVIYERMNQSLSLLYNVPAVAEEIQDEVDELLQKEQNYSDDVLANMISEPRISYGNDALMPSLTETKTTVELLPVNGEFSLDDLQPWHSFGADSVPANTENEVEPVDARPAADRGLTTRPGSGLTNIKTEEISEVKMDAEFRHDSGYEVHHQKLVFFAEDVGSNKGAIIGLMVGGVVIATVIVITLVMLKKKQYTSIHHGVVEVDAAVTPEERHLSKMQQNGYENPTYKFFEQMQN

Point of comparison: `COc1cc2c(cc1OC)C(=O)C(CC1CCN(Cc3ccc4cccc(O)c4n3)CC1)C2` (configuration not stated), inhibition 44.8%. Against it:
- COc1cc2c(cc1OC)C(=O)C(CC1CCN(Cc3ccccc3)CC1)C2 (configuration not stated) — not separable, > 10%
- COc1cc2c(cc1OC)C(=O)C(CC1CCN(Cc3cccc(F)c3)CC1)C2 (configuration not stated) — not separable, > 10%

system: not listed separately; test: in vitro; conditions: PAMPA
Description: Effective permeability of the compound after 18 hrs by PAMPA

Point of comparison: `COc1cc2c(cc1OC)C(=O)C(CC1CCN(Cc3ccc4cccc(O)c4n3)CC1)C2` (configuration not stated), Papp at 18 h 6.1 ×10⁻⁶ cm/s. Against it:
- COc1cc2c(cc1OC)C(=O)C(CC1CCN(Cc3cccc(F)c3)CC1)C2 (configuration not stated) — 1.9-fold higher, 11.5 ×10⁻⁶ cm/s
